What was measured:
[1] = Relative solubility by turbidity in aqueous buffers (pH 1.5, 4.5, 6.8, 7.4); format: physicochemical; settings: for turbidity threshold (L, M, H) 1.4: pH 1.5 (SGF); for turbidity threshold (L, M, H) 4.5: pH 4.5 (SIF); for turbidity threshold (L, M, H) 6.8: pH 6.8 (SIF); for turbidity threshold (L, M, H) 7.4: pH 7.4 (HEPES)
Outline: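 Twofold DMSO dilutions of a 25 mM stock were spiked into SGF (0.5M NaCl, pH 1.5), SIF (0.05M NaH2PO4, pH 4.5 and 6.8) or HEPES buffer (10 mM HEPES, 150 mM NaCl, pH 7.4). Absorbance was read at 490, 535 and 650 nm. The endpoint is the concentration crossing O.D. 0.01, averaged across wavelengths.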

BCR-KIT BaF3 cells = target: T1, BCR-KIT BaF3 cells (Homo sapiens, UniProt P10721); experiment: BaF3 BCR-KIT cell proliferation assay (ATPlite); format: cell-based; settings: read-out: Inhibition of Cell Proliferation IC50, BCR/BaF3 Kit
T1 construct: fused on or other part: P11274 (Breakpoint cluster region protein)
Outline: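 Growth inhibition over 3 days at 37 °C; IC50 from ATPlite luminescence, 8 concentrations (1:3 steps, max 10 μM). BaF3 fusion lines were tested without IL-3.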

T1 sequence (P10721 589-937): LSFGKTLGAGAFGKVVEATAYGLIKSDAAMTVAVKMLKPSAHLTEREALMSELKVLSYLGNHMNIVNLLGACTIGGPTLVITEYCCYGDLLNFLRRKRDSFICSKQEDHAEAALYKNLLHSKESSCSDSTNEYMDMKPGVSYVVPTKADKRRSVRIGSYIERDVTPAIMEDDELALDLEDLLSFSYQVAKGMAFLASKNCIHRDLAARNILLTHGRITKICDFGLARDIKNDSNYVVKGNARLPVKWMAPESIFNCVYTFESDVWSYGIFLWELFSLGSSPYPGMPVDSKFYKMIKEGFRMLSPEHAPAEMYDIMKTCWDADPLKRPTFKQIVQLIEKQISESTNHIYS

Row | Compound | IC50 (BCR-KIT BaF3 cells) [µM] | turbidity threshold (L, M, H) 1.4 [1] | turbidity threshold (L, M, H) 4.5 [1] | turbidity threshold (L, M, H) 6.8 [1] | turbidity threshold (L, M, H) 7.4 [1]
1 | CCc1ccc(Nc2ccc(C(=O)c3c[nH]c4ncnc(NC5CCC(F)(F)CC5)c34)c(F)n2)cn1 [Compound P-4096, [4-[(4,4-difluorocyclohexyl)amino]-7H-pyrrolo[2,3-d]pyrimidin-5-yl]-[6-[(6-ethyl-3-pyridyl)amino]-2-fluoro-3-pyridyl]methanone] | < 1 | H (high solubility if the threshold concentration is >250 μm) | L (low solubility if the threshold concentration is <31.3 μM) | L (low solubility if the threshold concentration is <31.3 μM) | L (low solubility if the threshold concentration is <31.3 μM)
2 | CCc1ccc(Nc2ccc(C(=O)c3c[nH]c4ncnc(N[C@@H](C)c5ccc(F)cc5)c34)c(F)n2)cn1 [Compound P-4097, [6-[(6-ethyl-3-pyridyl)amino]-2-fluoro-3-pyridyl]-[4-[[(1S)-1-(4-fluorophenyl)ethyl]amino]-7H-pyrrolo[2,3-d]pyrimidin-5-yl]methanone] | < 1 | M (moderate solubility if the threshold concentration is 31.3 μM to 250 μM) | L (low solubility if the threshold concentration is <31.3 μM) | L (low solubility if the threshold concentration is <31.3 μM) | L (low solubility if the threshold concentration is <31.3 μM)
3 | CC(C)Nc1ncnc2[nH]cc(C(=O)c3ccc(NC4CCCCC4)nc3F)c12 [Compound P-4101, [6-(cyclohexylamino)-2-fluoro-3-pyridyl]-[4-(isopropylamino)-7H-pyrrolo[2,3-d]pyrimidin-5-yl]methanone] | < 1 | M (moderate solubility if the threshold concentration is 31.3 μM to 250 μM) | L (low solubility if the threshold concentration is <31.3 μM) | L (low solubility if the threshold concentration is <31.3 μM) | L (low solubility if the threshold concentration is <31.3 μM)
4 | CNc1ncnc2[nH]cc(C(=O)c3ccc(NC4CCCCC4)nc3F)c12 [Compound P-4102, [6-(cyclohexylamino)-2-fluoro-3-pyridyl]-[4-(methylamino)-7H-pyrrolo[2,3-d]pyrimidin-5-yl]methanone] | < 1 | H (high solubility if the threshold concentration is >250 μm) | M (moderate solubility if the threshold concentration is 31.3 μM to 250 μM) | M (moderate solubility if the threshold concentration is 31.3 μM to 250 μM) | M (moderate solubility if the threshold concentration is 31.3 μM to 250 μM)
5 | COc1cncc(Nc2ccc(C(=O)c3c[nH]c4ncnc(NC5CCCCC5)c34)c(F)n2)c1 [Compound P-4104, [4-(cyclohexylamino)-7H-pyrrolo[2,3-d]pyrimidin-5-yl]-[2-fluoro-6-[(5-methoxy-3-pyridyl)amino]-3-pyridyl]methanone] | > 1 | M (moderate solubility if the threshold concentration is 31.3 μM to 250 μM) | L (low solubility if the threshold concentration is <31.3 μM) | L (low solubility if the threshold concentration is <31.3 μM) | L (low solubility if the threshold concentration is <31.3 μM)
6 | CCCNc1ncnc2[nH]cc(C(=O)c3ccc(Nc4cncc(OC)c4)nc3F)c12 [Compound P-4105, [2-fluoro-6-[(5-methoxy-3-pyridyl)amino]-3-pyridyl]-[4-(propylamino)-7H-pyrrolo[2,3-d]pyrimidin-5-yl]methanone] | > 1 | M (moderate solubility if the threshold concentration is 31.3 μM to 250 μM) | M (moderate solubility if the threshold concentration is 31.3 μM to 250 μM) | M (moderate solubility if the threshold concentration is 31.3 μM to 250 μM) | M (moderate solubility if the threshold concentration is 31.3 μM to 250 μM)

More lines, main results first:

Row | IC50 (BCR-KIT BaF3 cells) [µM] | Compound | turbidity threshold (L, M, H) 1.4 [1] | turbidity threshold (L, M, H) 4.5 [1] | turbidity threshold (L, M, H) 6.8 [1] | turbidity threshold (L, M, H) 7.4 [1]
7 | < 0.1 | CNc1ncnc2[nH]cc(C(=O)c3ccc(Nc4ccc(C(F)(F)F)nc4)nc3F)c12 [Compound P-4092, [2-fluoro-6-[[6-(trifluoromethyl)-3-pyridyl]amino]-3-pyridyl]-[4-(methylamino)-7H-pyrrolo[2,3-d]pyrimidin-5-yl]methanone] | M (moderate solubility if the threshold concentration is 31.3 μM to 250 μM) | M (moderate solubility if the threshold concentration is 31.3 μM to 250 μM) | M (moderate solubility if the threshold concentration is 31.3 μM to 250 μM) | M (moderate solubility if the threshold concentration is 31.3 μM to 250 μM)
8 | < 0.1 | O=C(c1ccc(Nc2ccc(C3CC3)nc2)nc1F)c1c[nH]c2ncnc(NC3CC3)c12 [Compound P-4093, [4-(cyclopropylamino)-7H-pyrrolo[2,3-d]pyrimidin-5-yl]-[6-[(6-cyclopropyl-3-pyridyl)amino]-2-fluoro-3-pyridyl]methanone] | H (high solubility if the threshold concentration is >250 μm) | L (low solubility if the threshold concentration is <31.3 μM) | L (low solubility if the threshold concentration is <31.3 μM) | L (low solubility if the threshold concentration is <31.3 μM)
9 | < 0.1 | CNc1ncnc2[nH]cc(C(=O)c3ccc(Nc4ccc(C5CC5)nc4)nc3F)c12 [Compound P-4094, [6-[(6-cyclopropyl-3-pyridyl)amino]-2-fluoro-3-pyridyl]-[4-(methylamino)-7H-pyrrolo[2,3-d]pyrimidin-5-yl]methanone] | H (high solubility if the threshold concentration is >250 μm) | L (low solubility if the threshold concentration is <31.3 μM) | M (moderate solubility if the threshold concentration is 31.3 μM to 250 μM) | M (moderate solubility if the threshold concentration is 31.3 μM to 250 μM)
10 | < 0.1 | CCc1ccc(Nc2ccc(C(=O)c3c[nH]c4ncnc(NC5CCC5)c34)c(F)n2)cn1 [Compound P-4095, [4-(cyclobutylamino)-7H-pyrrolo[2,3-d]pyrimidin-5-yl]-[6-[(6-ethyl-3-pyridyl)amino]-2-fluoro-3-pyridyl]methanone] | M (moderate solubility if the threshold concentration is 31.3 μM to 250 μM) | M (moderate solubility if the threshold concentration is 31.3 μM to 250 μM) | M (moderate solubility if the threshold concentration is 31.3 μM to 250 μM) | M (moderate solubility if the threshold concentration is 31.3 μM to 250 μM)
11 | < 0.1 | CCc1ccc(Nc2ccc(C(=O)c3c[nH]c4ncnc(NCCCOC)c34)c(F)n2)cn1 [Compound P-4098, [6-[(6-ethyl-3-pyridyl)amino]-2-fluoro-3-pyridyl]-[4-(3-methoxypropylamino)-7H-pyrrolo[2,3-d]pyrimidin-5-yl]methanone] | H (high solubility if the threshold concentration is >250 μm) | L (low solubility if the threshold concentration is <31.3 μM) | M (moderate solubility if the threshold concentration is 31.3 μM to 250 μM) | M (moderate solubility if the threshold concentration is 31.3 μM to 250 μM)
12 | < 0.1 | CCc1ccc(Nc2ccc(C(=O)c3c[nH]c4ncnc(NC5CCCC5)c34)c(F)n2)cn1 [Compound P-4099, [4-(cyclopentylamino)-7H-pyrrolo[2,3-d]pyrimidin-5-yl]-[6-[(6-ethyl-3-pyridyl)amino]-2-fluoro-3-pyridyl]methanone] | H (high solubility if the threshold concentration is >250 μm) | L (low solubility if the threshold concentration is <31.3 μM) | L (low solubility if the threshold concentration is <31.3 μM) | L (low solubility if the threshold concentration is <31.3 μM)
13 | < 1 | CCCCNc1ncnc2[nH]cc(C(=O)c3ccc(Nc4ccc(CC)nc4)nc3F)c12 [Compound P-4100, [4-(butylamino)-7H-pyrrolo[2,3-d]pyrimidin-5-yl]-[6-[(6-ethyl-3-pyridyl)amino]-2-fluoro-3-pyridyl]methanone] | H (high solubility if the threshold concentration is >250 μm) | M (moderate solubility if the threshold concentration is 31.3 μM to 250 μM) | M (moderate solubility if the threshold concentration is 31.3 μM to 250 μM) | M (moderate solubility if the threshold concentration is 31.3 μM to 250 μM)
14 | > 1 | COc1cncc(Nc2ccc(C(=O)c3c[nH]c4ncnc(NCC(F)(F)F)c34)c(F)n2)c1 [Compound P-4103, [2-fluoro-6-[(5-methoxy-3-pyridyl)amino]-3-pyridyl]-[4-(2,2,2-trifluoroethylamino)-7H-pyrrolo[2,3-d]pyrimidin-5-yl]methanone] | L (low solubility if the threshold concentration is <31.3 μM) | M (moderate solubility if the threshold concentration is 31.3 μM to 250 μM) | M (moderate solubility if the threshold concentration is 31.3 μM to 250 μM) | M (moderate solubility if the threshold concentration is 31.3 μM to 250 μM)
